Reference: PubChem BioAssay AID1745844 (Carcinogenic Potency Database (CPDB), 2022)
Activity calls are given as the source filed them. How the calls were made is not given here.

Tested on: rodent lifetime carcinogenesis bioassay, tumor incidence TD50
Assay: chronic cancer bioassays in animals – CPDB, compiled studies (AID 1745844)

SMILES: C1CCC(C(CC2CCCCN2)C2CCCCC2)CC1 (stereo not drawn)
- carcinogen call (rat, strain Sprague-Dawley, females, in feed, site: liver, lesion: one or several types, types not named, dosed 52 weeks, study length 52 weeks): negative (inactive)
- carcinogen call (rat, strain Sprague-Dawley, females, in feed, site: liver, lesion: one or several types, types not named, dosed 52 weeks, study length 56 weeks): negative (inactive)
- carcinogen call (rat, strain Sprague-Dawley, males, in feed, site: liver, lesion: one or several types, types not named, dosed 52 weeks, study length 52 weeks): negative (inactive)
- carcinogen call (rat, strain Sprague-Dawley, males, in feed, site: liver, lesion: one or several types, types not named, dosed 52 weeks, study length 56 weeks): negative (inactive)

SMILES: CC(C)=NO
- TD50 (rat, strain MRC-Wistar, females, in drinking water, site: any site (literature study), lesion: several types, types named in the paper, dosed 78 weeks, study length 130 weeks): 91.5 mg/kg/day
- TD50 (rat, strain MRC-Wistar, females, in drinking water, site: liver, lesion: hemangioma, dosed 78 weeks, study length 130 weeks): 408 mg/kg/day (inactive)
- TD50 (rat, strain MRC-Wistar, females, in drinking water, site: liver, lesion: hepatocellular adenoma, dosed 78 weeks, study length 130 weeks): 127 mg/kg/day (inactive)
- TD50 (rat, strain MRC-Wistar, females, in drinking water, site: liver, lesion: several types, types named in the paper, dosed 78 weeks, study length 130 weeks): 127 mg/kg/day (inactive)
- TD50 (rat, strain MRC-Wistar, males, in drinking water, site: any site (literature study), lesion: several types, types named in the paper, dosed 78 weeks, study length 110 weeks): 12.8 mg/kg/day
- TD50 (rat, strain MRC-Wistar, males, in drinking water, site: liver, lesion: hemangioma, dosed 78 weeks, study length 110 weeks): 136 mg/kg/day
- TD50 (rat, strain MRC-Wistar, males, in drinking water, site: liver, lesion: hepatocellular adenoma, dosed 78 weeks, study length 110 weeks): 12.1 mg/kg/day
- TD50 (rat, strain MRC-Wistar, males, in drinking water, site: liver, lesion: several types, types named in the paper, dosed 78 weeks, study length 110 weeks): 12.1 mg/kg/day (inactive)

SMILES: O=NN(CCO)C(=O)NCCCl
- TD50 (rat, strain Fischer 344, females, by gavage, site: all sites, lesion: mononuclear-cell leukemia, dosed 40 weeks, study length 115 weeks): 0.76 mg/kg/day
- TD50 (rat, strain Fischer 344, females, by gavage, site: kidney tubule, lesion: several types, types named in the paper, dosed 40 weeks, study length 115 weeks): 4.38 mg/kg/day
- TD50 (rat, strain Fischer 344, females, by gavage, site: liver, lesion: cholangiocarcinoma, dosed 40 weeks, study length 115 weeks): 4.38 mg/kg/day
- TD50 (rat, strain Fischer 344, females, by gavage, site: liver, lesion: hepatocellular carcinoma, dosed 40 weeks, study length 115 weeks): 0.653 mg/kg/day
- TD50 (rat, strain Fischer 344, females, by gavage, site: liver, lesion: neoplastic nodule, dosed 40 weeks, study length 115 weeks): 0.564 mg/kg/day
- TD50 (rat, strain Fischer 344, females, by gavage, site: liver, lesion: several types, types named in the paper, dosed 40 weeks, study length 115 weeks): 0.488 mg/kg/day
- TD50 (rat, strain Fischer 344, females, in drinking water, site: liver, lesion: one or several types, types not named, dosed 30 weeks, study length 104 weeks): 1.19 mg/kg/day
- TD50 (rat, strain Fischer 344, females, in drinking water, site: uterus, lesion: one or several types, types not named, dosed 30 weeks, study length 104 weeks): 0.669 mg/kg/day
- TD50 (rat, strain Fischer 344, males, by gavage, site: kidney tubule, lesion: several types, types named in the paper, dosed 35 weeks, study length 120 weeks): 0.663 mg/kg/day
- TD50 (rat, strain Fischer 344, males, by gavage, site: liver, lesion: cholangiocarcinoma, dosed 35 weeks, study length 120 weeks): 0.926 mg/kg/day
- TD50 (rat, strain Fischer 344, males, by gavage, site: liver, lesion: hepatocellular carcinoma, dosed 35 weeks, study length 120 weeks): 0.233 mg/kg/day
- TD50 (rat, strain Fischer 344, males, by gavage, site: liver, lesion: neoplastic nodule, dosed 35 weeks, study length 120 weeks): 1.19 mg/kg/day
- TD50 (rat, strain Fischer 344, males, by gavage, site: liver, lesion: several types, types named in the paper, dosed 35 weeks, study length 120 weeks): 0.15 mg/kg/day
- TD50 (rat, strain Fischer 344, males, in drinking water, site: liver, lesion: one or several types, types not named, dosed 30 weeks, study length 104 weeks): 0.59 mg/kg/day

SMILES: Cn1cnc([N+](=O)[O-])c1Sc1ncnc2nc[nH]c12
- TD50 (monkey, strain Rhesus [Macaca mulatta], both sexes, in feed, site: any site (literature study), lesion: benign tumor, dosed 774 weeks, study length 851 weeks): 4.89 mg/kg/day
- TD50 (monkey, strain Rhesus [Macaca mulatta], both sexes, in feed, site: any site (literature study), lesion: several types, types named in the paper, dosed 774 weeks, study length 851 weeks): 3.68 mg/kg/day
- TD50 (monkey, strain Rhesus [Macaca mulatta], both sexes, in feed, site: leptomeninges, lesion: lymphocytic lymphoma, dosed 774 weeks, study length 851 weeks): 6.79 mg/kg/day
- TD50 (monkey, strain Rhesus [Macaca mulatta], both sexes, in feed, site: salivary gland, lesion: adenoma, dosed 774 weeks, study length 851 weeks): 2.18 mg/kg/day
- TD50 (monkey, strain Rhesus [Macaca mulatta], both sexes, in feed, site: uterus, lesion: leiomyoma, dosed 774 weeks, study length 851 weeks): 2.74 mg/kg/day
- TD50 (mouse, strain B6C3F1, females, in feed, site: all sites, lesion: systemic and localized lymphoma, dosed 94 weeks, study length 94 weeks): 7.59 mg/kg/day
- TD50 (mouse, strain B6C3F1, females, in feed, site: all sites, lesion: systemic and localized lymphoma, dosed 100 weeks, study length 100 weeks): 43.8 mg/kg/day
- TD50 (mouse, strain B6C3F1, females, in feed, site: liver, lesion: hepatocellular adenoma, dosed 100 weeks, study length 100 weeks): 67.5 mg/kg/day
- TD50 (mouse, strain B6C3F1, females, in feed, site: lung, lesion: one or several types, types not named, dosed 94 weeks, study length 94 weeks): 4.89 mg/kg/day
- TD50 (mouse, strain B6C3F1, females, in feed, site: uterus, lesion: hemangioendothelioma, dosed 100 weeks, study length 100 weeks): 8.92 mg/kg/day
- TD50 (mouse, strain B6C3F1, males, in feed, site: all sites, lesion: systemic and localized lymphoma, dosed 100 weeks, study length 100 weeks): 9.66 mg/kg/day
- TD50 (mouse, strain B6C3F1, males, in feed, site: liver, lesion: hepatocellular carcinoma, dosed 100 weeks, study length 100 weeks): 55.9 mg/kg/day
- TD50 (mouse, strain B6C3F1, males, in feed, site: lung, lesion: carcinoma, dosed 100 weeks, study length 100 weeks): 55.9 mg/kg/day
- TD50 (rat, strain Fischer 344, females, in feed, site: ear duct, lesion: squamous-cell carcinoma, dosed 52 weeks, study length 52 weeks): 10.1 mg/kg/day
- carcinogen call (rat, strain Fischer 344, females, in feed, site: liver, lesion: one or several types, types not named, dosed 52 weeks, study length 52 weeks): negative (inactive)

SMILES: NNc1ccc(C(=O)O)cc1
- TD50 (mouse, strain Swiss albino, females, in drinking water, site: aorta and large arteries, lesion: leiomyoma, dosed 121 weeks, study length 121 weeks): 2660 mg/kg/day
- TD50 (mouse, strain Swiss albino, females, in drinking water, site: aorta and large arteries, lesion: leiomyosarcoma, dosed 121 weeks, study length 121 weeks): 1970 mg/kg/day
- TD50 (mouse, strain Swiss albino, females, in drinking water, site: aorta and large arteries, lesion: several types, types named in the paper, dosed 121 weeks, study length 121 weeks): 1070 mg/kg/day
- TD50 (mouse, strain Swiss albino, females, in drinking water, site: lung, lesion: adenocarcinoma, dosed 121 weeks, study length 121 weeks): 11200 mg/kg/day
- TD50 (mouse, strain Swiss albino, females, in drinking water, site: lung, lesion: adenoma, dosed 121 weeks, study length 121 weeks): 1170 mg/kg/day
- TD50 (mouse, strain Swiss albino, females, in drinking water, site: lung, lesion: several types, types named in the paper, dosed 121 weeks, study length 121 weeks): 1140 mg/kg/day
- TD50 (mouse, strain Swiss albino, males, in drinking water, site: aorta and large arteries, lesion: leiomyoma, dosed 120 weeks, study length 120 weeks): 1490 mg/kg/day
- TD50 (mouse, strain Swiss albino, males, in drinking water, site: aorta and large arteries, lesion: leiomyosarcoma, dosed 120 weeks, study length 120 weeks): 609 mg/kg/day
- TD50 (mouse, strain Swiss albino, males, in drinking water, site: aorta and large arteries, lesion: several types, types named in the paper, dosed 120 weeks, study length 120 weeks): 380 mg/kg/day
- TD50 (mouse, strain Swiss albino, males, in drinking water, site: lung, lesion: adenoma, dosed 120 weeks, study length 120 weeks): 597 mg/kg/day
- TD50 (mouse, strain Swiss albino, males, in drinking water, site: lung, lesion: several types, types named in the paper, dosed 120 weeks, study length 120 weeks): 675 mg/kg/day
- carcinogen call (mouse, strain Swiss, females, by gavage, site: lung, lesion: one or several types, types not named, dosed 40 weeks, study length 55 weeks): negative (inactive)

SMILES: Nc1nc(N)nc(N)n1
- carcinogen call (mouse, strain B6C3F1, females, in feed, site: any site (literature study), lesion: several types, types named in the paper, dosed 103 weeks, study length 105 weeks): negative (inactive)
- TD50 (mouse, strain B6C3F1, males, in feed, site: any site (literature study), lesion: several types, types named in the paper, dosed 103 weeks, study length 105 weeks): 3200 mg/kg/day (inactive)
- TD50 (mouse, strain B6C3F1, males, in feed, site: liver, lesion: hepatocellular adenoma + hepatocellular carcinoma + neoplastic nodule, dosed 103 weeks, study length 105 weeks): 4370 mg/kg/day
- TD50 (rat, strain Fischer 344, females, in feed, site: any site (literature study), lesion: several types, types named in the paper, dosed 103 weeks, study length 105 weeks): 3930 mg/kg/day
- TD50 (rat, strain Fischer 344, females, in feed, site: liver, lesion: hepatocellular adenoma + hepatocellular carcinoma + neoplastic nodule, dosed 103 weeks, study length 105 weeks): 4410 mg/kg/day
- TD50 (rat, strain Fischer 344, females, in feed, site: thyroid gland, lesion: c-cell adenoma + c-cell carcinoma, dosed 103 weeks, study length 105 weeks): 2470 mg/kg/day (inactive)
- TD50 (rat, strain Fischer 344, females, in feed, site: thyroid gland, lesion: c-cell carcinoma, dosed 103 weeks, study length 105 weeks): 4160 mg/kg/day
- TD50 (rat, strain Fischer 344, males, in feed, site: any site (literature study), lesion: several types, types named in the paper, dosed 103 weeks, study length 105 weeks): 149 mg/kg/day
- TD50 (rat, strain Fischer 344, males, in feed, site: urinary bladder, lesion: transitional-cell carcinoma + transitional-cell papilloma, dosed 103 weeks, study length 105 weeks): 679 mg/kg/day
- TD50 (rat, strain Fischer 344, males, in feed, site: urinary bladder, lesion: transitional-cell carcinoma, dosed 103 weeks, study length 105 weeks): 735 mg/kg/day
